Laboratory results as given in PubChem BioAssay AID330 (DTP/NCI, 2004).
Where “and” joins values, the source holds several entries; their conditions need not be identical. Equal values may be shown once. Toxic doses and inconclusive results are not listed. Rule for the calls: active = survival T/C of 150% or more; inactive = T/C below 125% in these data.

Tested on: P388 leukemia ip, CD2F1 mice, survival T/C
Experiment: NCI In Vivo Anticancer Drug Screen. Data for tumor model P388 Leukemia (intraperitoneal) in CD2F1 (CDF1) mice
Conditions: endpoint: median survival time, higher = longer survival
In short: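 Mice carrying the transplanted tumor received test compound or vehicle. Survival was recorded in each group, and the value is the treated-group measurement divided by that of the vehicle-treated control group.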

[1] = dose: 50.0 mg/kg/injection, schedule: Q01DX005 (ip), vehicle: Klucel (hydroxypropylcellulose) (HPC)
[2] = dose: 100.0 mg/kg/injection, schedule: Q01DX005 (ip), vehicle: Klucel (hydroxypropylcellulose) (HPC)
[3] = dose: 200.0 mg/kg/injection, schedule: Q01DX005 (ip), vehicle: Klucel (hydroxypropylcellulose) (HPC)
[4] = dose: 60.0 mg/kg/injection, schedule: Q01DX005 (ip), vehicle: saline with Tween-80
[5] = dose: 120.0 mg/kg/injection, schedule: Q01DX005 (ip), vehicle: saline with Tween-80
[6] = dose: 240.0 mg/kg/injection, schedule: Q01DX005 (ip), vehicle: saline with Tween-80
[7] = dose: 50.0 mg/kg/injection, schedule: Q01DX009 (ip), vehicle: saline with Tween-80
[8] = dose: 100.0 mg/kg/injection, schedule: Q01DX009 (ip), vehicle: saline with Tween-80

Measured: T/C

N#CNC1=NC(c2ccccc2O)CC(=O)N1 (centres undefined)
inactive: dose: 100.0 mg/kg/injection, schedule: Q04DX003 (ip), vehicle: suspension in saline 98 % of control | dose: 200.0 mg/kg/injection, schedule: Q04DX003 (ip), vehicle: suspension in saline 105 % of control | dose: 400.0 mg/kg/injection, schedule: Q04DX003 (ip), vehicle: suspension in saline 100 % of control

CCN(CC)c1ccc2c(c1)Oc1cc(N(CC)CC)ccc1C21c2ccccc2C(=O)N1c1ccccc1
inactive: [1] 98 % of control | [2] 99 % of control | [3] 103 % of control

CCCCCCCCCCCCCCCCCc1ccccc1O
inactive: dose: 7.5 mg/kg/injection, schedule: Q01DX009 (ip), vehicle: saline with Tween-80 91 % of control | dose: 15.0 mg/kg/injection, schedule: Q01DX009 (ip), vehicle: saline with Tween-80 94 % of control | dose: 30.0 mg/kg/injection, schedule: Q01DX009 (ip), vehicle: saline with Tween-80 116 % of control

Cc1ccc(CNc2ccc(C)c(Cl)c2)cc1
inactive: dose: 100.0 mg/kg/injection, schedule: Q04DX003 (ip), vehicle: other 100 % of control | dose: 200.0 mg/kg/injection, schedule: Q04DX003 (ip), vehicle: other 100 % of control | dose: 400.0 mg/kg/injection, schedule: Q04DX003 (ip), vehicle: other 100 % of control

CCCCc1c(OC)cc(O)c2c1C(=O)c1[nH]c(C(=O)O)c(O)c(=O)c1C2=O
inactive: dose: 7.5 mg/kg/injection, schedule: Q01DX009 (ip), vehicle: Klucel (hydroxypropylcellulose) (HPC) 98 % of control | dose: 15.0 mg/kg/injection, schedule: Q01DX009 (ip), vehicle: Klucel (hydroxypropylcellulose) (HPC) 100 % of control | dose: 30.0 mg/kg/injection, schedule: Q01DX009 (ip), vehicle: Klucel (hydroxypropylcellulose) (HPC) 95 % of control

O=c1oc(-c2ccco2)ns1
inactive: dose: 12.5 mg/kg/injection, schedule: Q01DX009 (ip), vehicle: Klucel (hydroxypropylcellulose) (HPC) 97 % of control | dose: 25.0 mg/kg/injection, schedule: Q01DX009 (ip), vehicle: Klucel (hydroxypropylcellulose) (HPC) 110 % of control | dose: 50.0 mg/kg/injection, schedule: Q01DX009 (ip), vehicle: Klucel (hydroxypropylcellulose) (HPC) 97 % of control

CC1=C(C)C(=O)OC(C(C)(O)C2(O)CCC3(O)C4CC(O)C56OC5C=CC(=O)C6(C)C4CCC32C)C1 (centres undefined)
inactive: dose: 0.75 mg/kg/injection, schedule: Q01DX005 (ip), vehicle: Klucel (hydroxypropylcellulose) (HPC) 100 % of control | dose: 1.5 mg/kg/injection, schedule: Q01DX005 (ip), vehicle: Klucel (hydroxypropylcellulose) (HPC) 102 % of control | dose: 3.0 mg/kg/injection, schedule: Q01DX005 (ip), vehicle: Klucel (hydroxypropylcellulose) (HPC) 108 % of control | dose: 6.0 mg/kg/injection, schedule: Q01DX005 (ip), vehicle: Klucel (hydroxypropylcellulose) (HPC) 111 % of control

S=c1[nH]nc(Cc2cccc3ccccc23)n1-c1ccccc1
inactive: [1] 97 % of control | [2] 99 % of control | [3] 90 % of control

COc1ccc(OC)c2c(NCCNCCO)cc(NCCNCCO)nc12
inactive: dose: 15.0 mg/kg/injection, schedule: Q01DX005 (ip), vehicle: saline 100 % of control | dose: 30.0 mg/kg/injection, schedule: Q01DX005 (ip), vehicle: saline 95 % of control | dose: 60.0 mg/kg/injection, schedule: Q01DX005 (ip), vehicle: saline 97 % of control

Cc1ccc2c(c1)C1(SCC(=O)N1c1ccc(Cl)cc1)C(=O)N2 (centres undefined)
inactive: [4] 101 % of control | [5] 100 % of control | [6] 100 % of control

O=C1OC[C@@H]2[C@H]1[C@H]1O[C@@H]2c2cc3ccccc3cc21
inactive: [4] 104 % of control | [5] 101 % of control | [6] 101 % of control

CCO/C=C1/N=C(c2ccc3ccccc3c2)OC1=O
inactive: dose: 60.0 mg/kg/injection, schedule: Q01DX005 (ip), vehicle: saline + Tween-80 + alcohol 101 % of control | dose: 120.0 mg/kg/injection, schedule: Q01DX005 (ip), vehicle: saline + Tween-80 + alcohol 100 % of control | dose: 240.0 mg/kg/injection, schedule: Q01DX005 (ip), vehicle: saline + Tween-80 + alcohol 86 % of control

COc1ccc(/C=N/Nc2nnc3c4ccccc4c4ccccc4c3n2)cc1OC
inactive: dose: 50.0 mg/kg/injection, schedule: Q04DX002 (ip), vehicle: suspension in saline 86 % of control | dose: 100.0 mg/kg/injection, schedule: Q04DX002 (ip), vehicle: suspension in saline 89 % of control | dose: 200.0 mg/kg/injection, schedule: Q04DX002 (ip), vehicle: suspension in saline 90 % of control

CCN(CC)CCCC(C)n1c2nc(=O)[nH]c(=O)c-2nc2cc(Cl)ccc21 (centres undefined)
inactive: dose: 12.5 mg/kg/injection, schedule: Q01DX005 (ip), vehicle: saline 98 % of control | dose: 25.0 mg/kg/injection, schedule: Q01DX005 (ip), vehicle: saline 104 % of control | dose: 50.0 mg/kg/injection, schedule: Q01DX005 (ip), vehicle: saline 117 % of control and 119 % of control

Fc1ccc(C=NC23CC4CC(CC(C4)C2)C3)cc1
inactive: [7] 93 % of control | [8] 91 % of control | dose: 200.0 mg/kg/injection, schedule: Q01DX009 (ip), vehicle: saline with Tween-80 97 % of control

COc1cccc2c1C(=O)c1c(O)c3c(c(O)c1C2=O)CC(O)(C(=O)CO)CC3OC1CC(N(Cc2ccccc2)Cc2ccccc2)C(O)C(C)O1 (centres undefined)
active: dose: 1.56 mg/kg/injection, schedule: Q01DX009 (ip), vehicle: water 151 % of control | dose: 3.13 mg/kg/injection, schedule: Q01DX009 (ip), vehicle: water 156 % of control | dose: 6.25 mg/kg/injection, schedule: Q01DX009 (ip), vehicle: water 175 % of control
inactive: dose: 0.2 mg/kg/injection, schedule: Q01DX009 (ip), vehicle: water 115 % of control

CN(C=O)CCN(C)C=O
inactive: dose: 100.0 mg/kg/injection, schedule: Q04DX002 (ip), vehicle: saline 96 % of control | dose: 200.0 mg/kg/injection, schedule: Q04DX002 (ip), vehicle: saline 99 % of control | dose: 400.0 mg/kg/injection, schedule: Q04DX002 (ip), vehicle: saline 104 % of control

Cc1ccc(S(=O)(=O)NC(=O)OC23COCN2COC3)cc1
inactive: [7] 117 % of control | [8] 122 % of control

NS(=O)(=O)c1cc([N+](=O)[O-])c(SSc2sc(S(N)(=O)=O)cc2[N+](=O)[O-])s1
inactive: dose: 25.0 mg/kg/injection, schedule: Q04DX003 (ip), vehicle: Klucel (hydroxypropylcellulose) (HPC) 104 % of control | dose: 50.0 mg/kg/injection, schedule: Q04DX003 (ip), vehicle: Klucel (hydroxypropylcellulose) (HPC) 101 % of control | dose: 100.0 mg/kg/injection, schedule: Q01DX001 (ip), vehicle: Klucel (hydroxypropylcellulose) (HPC) 106 % of control | dose: 100.0 mg/kg/injection, schedule: Q04DX003 (ip), vehicle: Klucel (hydroxypropylcellulose) (HPC) 107 % of control | dose: 200.0 mg/kg/injection, schedule: Q01DX001 (ip), vehicle: Klucel (hydroxypropylcellulose) (HPC) 99 % of control

COc1cc(O)c(Cc2ccccc2O)c(O)c1C(=O)CCc1ccccc1
inactive: dose: 1.25 mg/kg/injection, schedule: Q01DX009 (ip), vehicle: saline with Tween-80 100 % of control | dose: 1.25 mg/kg/injection, schedule: Q01DX009 (ip), vehicle: saline 104 % of control | dose: 2.5 mg/kg/injection, schedule: Q01DX009 (ip), vehicle: saline with Tween-80 105 % of control | dose: 2.5 mg/kg/injection, schedule: Q01DX009 (ip), vehicle: saline 104 % of control | dose: 5.0 mg/kg/injection, schedule: Q01DX009 (ip), vehicle: saline with Tween-80 111 % of control | dose: 5.0 mg/kg/injection, schedule: Q01DX009 (ip), vehicle: saline 104 % of control | dose: 10.0 mg/kg/injection, schedule: Q01DX009 (ip), vehicle: saline 104 % of control | dose: 20.0 mg/kg/injection, schedule: Q01DX009 (ip), vehicle: saline 101 % of control

Cc1cc(N/N=C/c2c(C)n(C)n(-c3ccccc3)c2=O)c2cc3c(cc2n1)OCO3
inactive: dose: 6.25 mg/kg/injection, schedule: Q01DX005 (ip), vehicle: Klucel (hydroxypropylcellulose) (HPC) 103 % of control | dose: 12.5 mg/kg/injection, schedule: Q01DX005 (ip), vehicle: Klucel (hydroxypropylcellulose) (HPC) 113 % of control | dose: 25.0 mg/kg/injection, schedule: Q01DX005 (ip), vehicle: Klucel (hydroxypropylcellulose) (HPC) 108 % of control

CCOC(=O)CC(=O)c1sc(SC)c(C#N)c1N
inactive: dose: 50.0 mg/kg/injection, schedule: Q01DX005 (ip), vehicle: saline with Tween-80 106 % of control | dose: 100.0 mg/kg/injection, schedule: Q01DX005 (ip), vehicle: saline with Tween-80 100 % of control | dose: 200.0 mg/kg/injection, schedule: Q01DX005 (ip), vehicle: saline with Tween-80 93 % of control
